Assay results taken from patent US11225475B2, “Substituted pyridines as inhibitors of histone deacetylase” (Alkermes, Inc., priority 2017, dated 2022).

Columns and labels:
[1] = tested on: human myeloid (CFU-GM) progenitors; experiment: Myeloid CFU assay (human bone marrow clonogenic progenitors); assay type: cell-based; conditions: 14 days in culture
Description: (§1) Clonogenic progenitors of human erythroid (CFU-E, BFU-E), granulocyte-monocyte (CFU-GM) and multipotential (CFU-GEMM) lineages were assessed in a semi-solid methylcellulose-based media formulation containing rhIL-3 (10 ng/mL), rhGM-SCF (10 ng/mL), rhSCF (50 ng/mL) and Epo (3 U/mL).
(§2) Normal human bone marrow light density cells derived from normal bone marrow (NorCal Biologics, California) and qualified at ReachBio, were stored in the gaseous phase of liquid nitrogen (−152° C.) until required for the assay. On the day of the experiment, the cells were thawed rapidly, the contents of each vial was diluted in 10 mL of Iscove's modified Dulbecco's medium containing 10% fetal bovine serum (IMDM+10% FBS) and washed by centrifugation (approximately 1200 r.p.m. for 10 minutes, room temperature). The supernatant was discarded and the cell pellets resuspended in a known volume of IMDM+10% FBS. A cell count (3% glacial acetic acid) and viability assessment (trypan blue exclusion test) was performed for the bone marrow sample.
(§3) On the day of the experiment, the compounds were dissolved in DMSO to a stock concentration of 10 mM. Serial dilutions were prepared from the stock concentration to achieve concentrations of 2 and 0.4 mM. When added to the methylcellulose-based media at 1:1000 (v/v), the final test concentrations of 10, 2 and 0.4 μM were achieved. Additionally, 5-FU was evaluated at 1.0, 0.1 and 0.01 μg/mL.
(§4) Clonogenic progenitors of the human erythroid (CFU-E and BFU-E) and myeloid (CFU-GM) lineages were set up in the methylcellulose-based media formulations described above. All compounds were added to the medium to give the final desired concentrations ([…] 5-Fluorouracil (Sigma Aldrich) was used as a positive control for progenitor proliferation (inhibition of colony growth) and was introduced to the human bone marrow cultures at 1.0, 0.1, and 0.01 μg/mL. Solvent control cultures (containing no compound but 0.1% DMSO) as well as standard controls (containing no compound and no DMSO) were also initiated.
(§5) Human myeloid and erythroid progenitor assays were initiated at 2.0×10^4 cells per culture. Following 14 days in culture, myeloid and erythroid colonies were assessed microscopically and scored by trained personnel. The colonies were divided into the following categories based on size and morphology: CFU-E, BFU-E, CFU-GM and CFU-GEMM.
(§6) The mean±one standard deviation of three replicate cultures was calculated for progenitors of each category (CFU-E, BFU-E, etc.). Two-tailed t-tests were performed to assess if there was a difference in the number of colonies generated between solvent control and treated cultures. Due to the potential subjectivity of colony enumeration, a p value of less than 0.01 is deemed significant. To calculate the concentration of 50% inhibition of colony growth (IC50) for each compound, a dose response curve was generated plotting the log of the compound concentration versus the percentage of control colony growth using XLfit software (IDBS). The concentration of 50% inhibition of colony growth (IC50) was calculated based on the sigmoid curve fit using Dose-Response, One-Site Model formula: y=A+[(B−A)/(1+((C/x)^D))], where A=the initial value (baseline response), B=maximum response, C=center (drug concentration that provokes a response halfway between A and B) and D=slope of the curve at midpoint. Further, plots and additional dose response curves were generated using GraphPad Prism 7.0.
(§7) Erythroid (CFU-E and BFU-E), myeloid (CFU-GM) and multi-potential (CFU-GEMM) colony enumeration was performed by trained personnel. The distribution of colony types as well as general colony and cellular morphology was analyzed. For statistical analysis colony numbers in compound treated cultures were compared to the solvent control cultures. […] The experiment was used to evaluate the potential effect of test compounds on human erythroid and myeloid progenitor proliferation in a methylcellulose-based medium. […]

[2] = target: HDAC1 (Homo sapiens (Human), UniProt Q13547); experiment: HDAC1 enzymatic assay (deacetylation of peptide substrate, Caliper LabChip); assay type: biochemical; conditions: reaction time 17 hours, 25° C.
Chain of HDAC1 (Q13547 whole entry): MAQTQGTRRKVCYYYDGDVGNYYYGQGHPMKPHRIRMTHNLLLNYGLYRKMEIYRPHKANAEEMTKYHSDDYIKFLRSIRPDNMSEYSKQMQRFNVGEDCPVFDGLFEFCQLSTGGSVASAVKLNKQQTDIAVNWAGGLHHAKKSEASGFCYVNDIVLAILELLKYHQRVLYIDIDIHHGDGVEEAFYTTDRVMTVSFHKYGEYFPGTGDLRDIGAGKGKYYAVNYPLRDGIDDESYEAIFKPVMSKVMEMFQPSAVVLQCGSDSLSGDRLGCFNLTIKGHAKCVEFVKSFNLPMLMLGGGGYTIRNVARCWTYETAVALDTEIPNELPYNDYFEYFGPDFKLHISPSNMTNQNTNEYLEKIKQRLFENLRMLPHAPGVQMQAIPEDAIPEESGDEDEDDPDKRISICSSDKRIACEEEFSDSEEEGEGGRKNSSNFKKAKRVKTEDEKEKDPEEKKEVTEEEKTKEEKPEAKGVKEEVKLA
Description: (§8) The following describes an assay protocol for measuring the deacetylation of a peptide substrate by the enzymes HDAC2 or HDAC1. Enzyme, substrate, and cofactors are combined in a well of a microtiter plate and incubated for […] at 25° C. At the end of the incubation, the reaction is quenched by the addition of an SDS-containing buffer. Substrate and product are separated and quantified electrophoretically using the microfluidic-based LabChip 3000 Drug Discovery System from Caliper Life Sciences. The peptide substrate used in this assay is FAM-TSRHK(AC)KL-CONH2 (FAM is carboxyfluorescein). Peptide should be >98% purity by Capillary Electrophoresis. • 1. To a well of a 384-well plate, add 5 μL of 2× enzyme buffer. Using Labcyte Echo 550, add 100 nl compound. Enzyme and compound may be pre-incubated at this time if desired. • 2. Add 5 μL of 2× substrate buffer. • 3. Incubate plate at 25° C. for 17 hours. • 4. Terminate reaction by adding 40 μL of 1.55× stop buffer. • 5. Create job on a Caliper LabChip® 3000 Drug Discovery System. • 6. Load the plate and start electrophoresis using blue laser (480 nm) for excitation and green CCD (520 nm) for detection (CCD2). Reaction time=17 hours; Reaction temperature=25° C.
(§9) 1% DMSO (from compound) 1 μM FAM-TSRHK(AC)KL-CONH2 5 nM HDAC Enzyme (specific activity may vary from lot-to-lot, and enzyme concentration may need to be adjusted to yield ˜10-20% conversion of substrate to product).
(§10) Substrate and product peptides present in each sample are separated electrophoretically using the LabChip 3000 capillary electrophoresis instrument. As substrate and product peptides are separated, two peaks of fluorescence are observed. Change in the relative fluorescence intensity of the substrate and product peaks is the parameter measured, reflecting enzyme activity. Capillary electrophoregramms (RDA acquisition files) are analyzed using HTS Well Analyzer software (Caliper Life Sciences). The enzyme activity in each sample is determined as the product to sum ratio (PSR):P/(S+P), where P is the peak height of the product peptide and S is the peak height of the substrate peptide. For each compound, enzyme activity is measured at various concentrations (12 concentrations of compound spaced by 3× dilution intervals). Negative control samples (0%-inhibition in the absence of inhibitor) and positive control samples (100%-inhibition, in the presence of 20 mM EDTA) are assembled in replicates of four and are used to calculate %-inhibition values for each compound at each concentration. Percent inhibition (Pinh) is determined using following equation: Pinh=(PSR0%−PSRinh)/(PSR0%−PSR100%)*100, where PSRinh is the product sum ratio in the presence of inhibitor, PSR0% is the average product sum ration in the absence of inhibitor and PSR100% is the average product sum ratio in 100%-inhibition control samples.
(§11) The IC50 values of inhibitors are determined by fitting the inhibition curves (Pinh versus inhibitor concentration) by 4 parameter sigmoidal dose-response model using XLfit 4 software (MDS).

[3] = target: T1, HDAC2 (Homo sapiens (Human), UniProt Q92769); experiment: HDAC2 enzymatic assay (deacetylation of peptide substrate, Caliper LabChip); assay type: biochemical; conditions: reaction time 17 hours, 25° C.
T1 sequence (Q92769 whole entry): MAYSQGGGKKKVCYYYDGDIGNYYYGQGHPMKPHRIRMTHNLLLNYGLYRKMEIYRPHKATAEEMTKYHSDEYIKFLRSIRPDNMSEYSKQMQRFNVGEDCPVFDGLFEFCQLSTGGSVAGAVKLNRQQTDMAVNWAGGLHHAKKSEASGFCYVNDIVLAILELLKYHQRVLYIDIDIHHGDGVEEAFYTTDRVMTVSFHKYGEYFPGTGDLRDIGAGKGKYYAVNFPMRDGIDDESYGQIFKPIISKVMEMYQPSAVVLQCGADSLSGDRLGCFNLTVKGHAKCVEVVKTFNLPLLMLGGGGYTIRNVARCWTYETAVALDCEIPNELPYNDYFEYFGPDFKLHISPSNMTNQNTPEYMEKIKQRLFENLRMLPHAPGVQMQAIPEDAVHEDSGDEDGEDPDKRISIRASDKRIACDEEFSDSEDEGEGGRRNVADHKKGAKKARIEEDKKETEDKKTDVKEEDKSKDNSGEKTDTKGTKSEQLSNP
Description: as §8, §9, §10, §11

[4] = tested on: human erythroid (CFU-E, BFU-E) progenitors; experiment: Erythroid CFU assay (human bone marrow clonogenic progenitors); assay type: cell-based; conditions: for Erythroid % control remaining @ 10 uM dose: 14 days in culture
Description: as §1, §2, §3, §4, §5, §6, §7

[5] = target: T1, HDAC2; experiment: HDAC2 enzymatic inhibition assay in SH-SY5Y cell lysate (HDAC-Glo 2); assay type: cell-based; conditions: SH-SY5Y cells, five hours incubation
Description: SH-SY5Y cells (Sigma) were cultured in Eagle's Modified Essential Medium supplemented with 10% fetal bovine serum and pen/strep. Twenty-four hours prior to compound dosing 20 uL of cells were plated in white 384 well plates at a density of 1,500 cells/well. Compounds were serially diluted in neat DMSO and then diluted 1:100 v/v into media without FBS and mixed. Media was removed from the plated cells and the diluted compounds in serum free media (1% v/v final DMSO) were added and incubated at 37.0 for five hours. Ten uL of HDAC-Glo 2 reagent with 0.1% Triton X-100 was then added, the plate was mixed and allowed to develop at room temperature for 100 minutes. Plates were then read with a Spectramax LMax luminometer employing a 0.4s integration time. Dose response curves were constructed with normalized data where CI-994 at 100 uM was defined as 100% inhibition and DMSO alone as 0% inhibition.

With COCc1ccc2c(n1)CN(C(=O)Nc1nc(-c3ccc(F)cc3F)ccc1N)C2 [Compound 2] the “Myeloid % control remaining @ 10 uM dose” value [1] was 92%, the IC50 [2] was 100 to 500 nM and the IC50 [3] was 500 to 5000 nM. The “Erythroid % control remaining @ 10 uM dose” value [4] was 62% and the IC50 [5] was 1000 to 1500 nM.
Cc1nc2c(s1)CN(C(=O)Nc1nc(-c3ccc(F)cc3F)ccc1N)C2 [Compound 3] was tested, and the “Myeloid % control remaining @ 10 uM dose” value [1] was 109%, the IC50 [2] was 100 to 500 nM and the IC50 [3] was 500 to 5000 nM. For the same compound, the “Erythroid % control remaining @ 10 uM dose” value [4] was 89% and the IC50 [5] was 100 to 1000 nM.
In the case of Nc1ccc(-c2ccc(F)cc2F)nc1NC(=O)N1Cc2cnc(CN3CC(F)C3)cc2C1 [Compound 4], the “Myeloid % control remaining @ 10 uM dose” value [1] is reported as 102%, the IC50 [2] is reported as 100 to 500 nM and the IC50 [3] is reported as 500 to 5000 nM. For the same compound, the “Erythroid % control remaining @ 10 uM dose” value [4] was 62% and the IC50 [5] was 1000 to 1500 nM.
With O=c1[nH]cc(F)c(=O)[nH]1 [Compound 5-FU, 5-Fluorouracil, reference compound] the “inhibitory effects as positive control for toxicity” value ([4]; erythroid and myeloid progenitor assays, 1.0, 0.1 and 0.01 μg/mL) was “exactly as expected”.
In the case of Cc1ncc2c(n1)CN(C(=O)Nc1nc(-c3ccc(F)cc3F)ccc1N)C2 [Compound 5], the “Myeloid % control remaining @ 10 uM dose” value [1] is reported as 82%, the IC50 [2] is reported as 500 to 5000 nM and the IC50 [3] is reported as 500 to 5000 nM. For the same compound, the “Erythroid % control remaining @ 10 uM dose” value [4] was 69% and the IC50 [5] was 1000 to 1500 nM.
With COCCn1cc2c(n1)CN(C(=O)Nc1nc(-c3ccc(Cl)s3)ccc1N)C2 [Compound 6] the “Myeloid % control remaining @ 10 uM dose” value [1] was 82%, the IC50 [2] was 500 to 5000 nM and the IC50 [3] was 500 to 5000 nM. The “Erythroid % control remaining @ 10 uM dose” value [4] was 69% and the IC50 [5] was over 1500 nM.
CCc1ncc2c(n1)CN(C(=O)Nc1nc(-c3ccc(F)cc3F)ccc1N)C2 [Compound 7] was tested, and the “Myeloid % control remaining @ 10 uM dose” value [1] was 105%, the IC50 [2] was 100 to 500 nM and the IC50 [3] was 500 to 5000 nM. The “Erythroid % control remaining @ 10 uM dose” value [4] was 69% and the IC50 [5] was 100 to 1000 nM.
COCCn1cc2c(n1)CN(C(=O)Nc1nc(-c3ccccc3F)ccc1N)C2 [Compound 8] was tested, and the “Myeloid % control remaining @ 10 uM dose” value [1] was 75%, the IC50 [2] was 100 to 500 nM and the IC50 [3] was 500 to 5000 nM. The “Erythroid % control remaining @ 10 uM dose” value [4] was 72% and the IC50 [5] was 100 to 1000 nM.
COCc1cc2c(cn1)CN(C(=O)Nc1nc(-c3ccccc3F)ccc1N)C2 [Compound 9] was tested, and the “Myeloid % control remaining @ 10 uM dose” value [1] was 102%, the IC50 [2] was 100 to 500 nM and the IC50 [3] was 500 to 5000 nM. For the same compound, the “Erythroid % control remaining @ 10 uM dose” value [4] was 87% and the IC50 [5] was 100 to 1000 nM.
In the case of CCn1cc2c(n1)CN(C(=O)Nc1nc(-c3ccc(F)cc3F)ccc1N)C2 [Compound 10], the “Myeloid % control remaining @ 10 uM dose” value [1] is reported as 77%, the IC50 [2] is reported as 100 to 500 nM and the IC50 [3] is reported as 100 to 500 nM. The “Erythroid % control remaining @ 10 uM dose” value [4] was 38% and the IC50 [5] was 100 to 1000 nM.
